Reference: patent US20240240224A1, “FLUORESCENT D-TYPE AMINO ACID METABOLISM MARKER-BASED METHOD FOR DETECTING ANTIBACTERIAL DRUG SENSITIVITY TEST” (priority 2020, published 2024)
≈ marks a conversion by molar mass, not a printed value.

Legend:
E.coli 1113 [1] = assay: FDAA metabolic labeling susceptibility test (Cy5-DAA probe, flow cytometry); type: cell-based, Escherichia coli; details: Escherichia coli; E.coli 1113; Cy5-DAA probe, 2 hours; read-out: MIC, FDAA
Experimental: (§1) The specific experimental steps are as follows: • 1. Take the colony to be tested that has been cultured overnight on the plate and fully mix it in normal saline to make a uniform bacterial solution. Dilute it into CAMHB medium to make a bacterial solution with OD600=0.05. • 2. Add 45 μl antibiotic solutions to be tested of different concentrations to 96-well plates (see Table 3 for antibiotic concentration gradient settings). • 3. Add 50 μl of bacterial solution prepared in Step 1 to the 96-well plate and mix well. • 4.5 μl of 10 mM Cy5-DAA probe was added to each well (final concentration was 0.15 mM, and its structure was shown in FIG. 1). After mixing, the probe was incubated for 2 hours in the dark. • 5. After dilution with 200 μl PBS solution, the fluorescence intensity of each sample was detected by flow cytometry. The flow detection results are shown in the attached FIG. 4-5, showing the curve of antibiotic concentration gradient and fluorescence intensity, and the MIC (minimum inhibitory concentration) is obtained by referring to this curve.

E.coli 1146 [2] = assay: as above; type: cell-based, Escherichia coli; details: Escherichia coli; E.coli 1146; Cy5-DAA probe, 2 hours; read-out: MIC, FDAA
Experimental: as §1

E.coli 1113 [3] = assay: Vitek 2 drug sensitivity test; type: cell-based, Escherichia coli; also: key: S: Drug sensitive; R: Drug resistance
E.coli 1146 [4] = assay: Vitek 2 drug sensitivity test; type: cell-based, Escherichia coli; as to Sensibility: key: S: Drug sensitive; R: Drug resistance
E. coli Ec11 [5] = assay: BMD susceptibility test; type: cell-based, Escherichia coli; details: unit assumed
E. coli Ec11 [6] = assay: FaAST (FDAA metabolic labeling); type: cell-based, Escherichia coli; details: unit assumed
Experimental: as §1
(§2) Antibiotic resistant strains are shown in bold in the table below.

Ec ATCC 25922 [7] = assay: FaAST (FDAA metabolic labeling); type: cell-based, Escherichia coli; details: unit assumed
Experimental: as §1, §2

E. coli Ec13 [8] = assay: BMD susceptibility test; type: cell-based, Escherichia coli; details: unit assumed
E. coli Ec13 [9] = assay: FaAST (FDAA metabolic labeling); type: cell-based, Escherichia coli; details: unit assumed
Experimental: as §1, with “cytometry.” for “cytometry. The flow detection results are shown in the attached FIG. 4-5, showing the curve of antibiotic concentration gradient and fluorescence intensity, and the MIC (minimum inhibitory concentration) is obtained by referring to this curve.”

Ec ATCC 25922 [10] = assay: BMD susceptibility test; type: cell-based, Escherichia coli; details: unit assumed
P. aeruginosa Pa2 [11] = assay: BMD susceptibility test; type: cell-based, Pseudomonas aeruginosa; details: unit assumed
P. aeruginosa Pa3 [12] = assay: BMD susceptibility test; type: cell-based, Pseudomonas aeruginosa; details: unit assumed
P. aeruginosa Pa2 [13] = assay: FaAST (FDAA metabolic labeling); type: cell-based, Pseudomonas aeruginosa; details: unit assumed
Experimental: as §1, §2

P. aeruginosa Pa3 [14] = assay: FaAST (FDAA metabolic labeling); type: cell-based, Pseudomonas aeruginosa; details: unit assumed
Experimental: as §1, §2

Pa ATCC 27853 [15] = assay: FaAST (FDAA metabolic labeling); type: cell-based, Pseudomonas aeruginosa; details: unit assumed
Experimental: as §1, §2

Pa ATCC 27853 [16] = assay: BMD susceptibility test; type: cell-based, Pseudomonas aeruginosa; details: unit assumed
A. baumannii Ab16 [17] = assay: BMD susceptibility test; type: cell-based, Acinetobacter baumannii; details: unit assumed
A. baumannii Ab16 [18] = assay: FaAST (FDAA metabolic labeling); type: cell-based, Acinetobacter baumannii; details: unit assumed
Experimental: as §1, with “cytometry.” for “cytometry. The flow detection results are shown in the attached FIG. 4-5, showing the curve of antibiotic concentration gradient and fluorescence intensity, and the MIC (minimum inhibitory concentration) is obtained by referring to this curve.”

A. baumannii Ab19 [19] = assay: BMD susceptibility test; type: cell-based, Acinetobacter baumannii; details: unit assumed
A. baumannii Ab19 [20] = assay: FaAST (FDAA metabolic labeling); type: cell-based, Acinetobacter baumannii; details: unit assumed
Experimental: as §1, §2

K. pneumoniae Kp6 [21] = assay: BMD susceptibility test; type: cell-based, Klebsiella pneumoniae; details: unit assumed
K. pneumoniae Kp9 = assay: BMD susceptibility test; type: cell-based, Klebsiella pneumoniae; details: unit assumed
K. pneumoniae Kp6 [22] = assay: FaAST (FDAA metabolic labeling); type: cell-based, Klebsiella pneumoniae; details: unit assumed
Experimental: as §1, with “cytometry.” for “cytometry. The flow detection results are shown in the attached FIG. 4-5, showing the curve of antibiotic concentration gradient and fluorescence intensity, and the MIC (minimum inhibitory concentration) is obtained by referring to this curve.”

[23] = tested on: bacteria contained in alveolar lavage fluid; assay: FDAA metabolic labeling susceptibility test of alveolar lavage fluid (Cy5-DAA probe); type: cell-based; details: alveolar lavage fluid of patients with hospital acquired pneumonia, 2 hours
Experimental: (§3) With reference to the flow chart of the rapid detection method of antimicrobial susceptibility test based on FDAA metabolic markers shown in FIG. 3, FDAA is used for the detection of antimicrobial susceptibility test of alveolar lavage fluid. The specific experimental steps are as follows: • 1. Mix bronchoalveolar lavage fluid (BALF, 10 ml) of patients with hospital acquired pneumonia with cation regulated broth medium (CAMHB, 10 ml) of twice the concentration to prepare the bacterial fluid to be tested. • 2. Add 45 μl antibiotic solutions of different concentrations to the 96-well plate separately (see Table 1 for antibiotic concentration gradient settings). • 3. Add 50 μl of the bacterial solution prepared in step 1 to the 96-well plate and mix well. • 4. Add 5 μl of 10 mM Cy5-DAA probe (final concentration 0.15 mM, see FIG. 1 for its structure) into each well, mix well, and then cultivate in dark for 2 hours. • 5. Add 200 μl PBS solution for dilution, and then use flow cytometry to detect the fluorescence intensity of each sample.

[24] = tested on: bacteria contained in alveolar lavage fluid; assay: Vitek 2 drug sensitivity test of alveolar lavage fluid; type: cell-based; as to Sensibility: key: S: Drug sensitive; R: Drug resistance
Escherichia coli ECO922 [25] = assay: VITEK drug sensitivity test; type: cell-based; details: unit assumed
Escherichia coli ECO922 [26] = assay: FaAST with DAA-Tetra probe; type: cell-based; details: unit assumed
Experimental: The specific experimental steps are as follows: • 1. The tested colonies cultured overnight on the plate were picked and mixed thoroughly in 2× Cation-Adjusted Mueller Hinton Broth medium (2×CAMHB) to make bacterial suspension with turbidity of OD600=0.1. • 2. […] Add 50 μL of the bacterial solution prepared in step 1 (the final concentration of the bacterial solution is OD600=0.05) to the 96-well plate, and add 5 μL of 3 mM DAA-Tetra probe (the final concentration is 0.15 mM), mix well, and incubate in the dark at 37° C. 120 rpm for 2 hours. • 4. After culture, dilute the mixed bacterial solution 10 times with PBS solution, and detect the fluorescence intensity of each sample with flow cytometry. The flow detection result is shown in FIG. 14-19, and the arrow is for the MIC value. The minimum inhibitory concentration of antibiotics was obtained according to the fluorescence signal intensity of flow detection, and the statistical results are shown in Table 6.

Escherichia coli ECO15 [27] = assay: VITEK drug sensitivity test; type: cell-based; details: unit assumed
Escherichia coli ECO15 [28] = assay: FaAST with DAA-Cy5-2 probe; type: cell-based; details: unit assumed
Experimental: as §3
The specific steps are the same as in Example 5. […] The minimum inhibitory concentration of antibiotics was obtained according to the fluorescence signal intensity of flow detection, and the statistical results are shown in Table 7.

## C[C@@H](O)[C@H]1C(=O)N2C(C(=O)O)=C(SCCN=CN)C[C@H]12 [Imipenem, imipenem]
E.coli 1113 [1]
  MIC: ≥ 128 µg/mL
E.coli 1146 [2]
  MIC: 0.5 µg/mL (≈ 1.67 µM)
E.coli 1113 [3]
  Sensibility: R
E.coli 1146 [4]
  Sensibility: S
E.coli 1146 [4]; Escherichia coli
  MIC: ≤ 1 µg/mL
E. coli Ec11 [5]
  BMD (MIC): ≤ 0.25 µg/mL
E. coli Ec11 [6]
  FaAST (MIC): 1 µg/mL
Ec ATCC 25922 [7]
  FaAST (MIC): 1 µg/mL
E. coli Ec13 [8]
  BMD (MIC): 16 µg/mL
E. coli Ec13 [9]
  FaAST (MIC): 128 µg/mL
Ec ATCC 25922 [10]
  BMD (MIC): ≤ 0.25 µg/mL
P. aeruginosa Pa2 [11]
  BMD (MIC): 1 µg/mL
P. aeruginosa Pa3 [12]
  BMD (MIC): 32 µg/mL
P. aeruginosa Pa2 [13]
  FaAST (MIC): 1 µg/mL
P. aeruginosa Pa3 [14]
  FaAST (MIC): 32 µg/mL
Pa ATCC 27853 [15]
  FaAST (MIC): 1 µg/mL
Pa ATCC 27853 [16]
  BMD (MIC): 2 µg/mL
A. baumannii Ab16 [17]
  BMD (MIC): 32 µg/mL
A. baumannii Ab16 [18]
  FaAST (MIC): 64 µg/mL
A. baumannii Ab19 [19]
  BMD (MIC): ≤ 0.25 µg/mL
A. baumannii Ab19 [20]
  FaAST (MIC): 1 µg/mL
K. pneumoniae Kp6 [21]
  BMD (MIC): ≤ 0.25 µg/mL
K. pneumoniae Kp9
  BMD (MIC): 128 µg/mL
K. pneumoniae Kp6 [22]
  FaAST (MIC): 1 µg/mL
[23]
  MIC, FDAA: ≥256 µg/mL
[24]
  MIC: ≥ 16 µg/mL
  Sensibility: R
Escherichia coli ECO922 [25]
  MIC, VITEK: 1 µg/mL (≈ 3.34 µM)
Escherichia coli ECO922 [26]
  MIC, FaAST: 1 µg/mL (≈ 3.34 µM)
Escherichia coli ECO15 [27]
  MIC, VITEK: 128 µg/mL (≈ 428 µM)
Escherichia coli ECO15 [28]
  MIC, FaAST: 128 µg/mL (≈ 428 µM)
